Results: patent publication US9351974B2, “Substituted pteridinones for the treatment of cancer” (OSI Pharmaceuticals, LLC, priority 2011, dated 2016)

Target: T1, His-tagged full-length RSK2 (RPS6KA3) (Homo sapiens, UniProt P51812)
T1 construct: His-tagged full-length RSK2 (RPS6KA3, Invitrogen PV3323); His; purchased Invitrogen PV3323
Assay: RSK2 Omnia Assay for compound IC50 determination
Format: biochemical
Details: ATP 15 μM, n=2, read-out: Mean RSK2 Biochem IC50
Outline: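 Continuous fluorescence assay (ex 360/em 485 nm) of SOX-peptide (Omnia ST Peptide 6, 5 μM) phosphorylation with ATP 15 μM (Km 16.3 μM). Enzyme was […], in pH 7.5 HEPES/MgCl2 buffer with 1% DMSO. IC50 came from 11-point threefold dilutions ([…]) by four-parameter fit of initial slopes, in duplicate; Ki by Cheng-Prusoff assuming competitive inhibition.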

T1 sequence (P51812 whole entry): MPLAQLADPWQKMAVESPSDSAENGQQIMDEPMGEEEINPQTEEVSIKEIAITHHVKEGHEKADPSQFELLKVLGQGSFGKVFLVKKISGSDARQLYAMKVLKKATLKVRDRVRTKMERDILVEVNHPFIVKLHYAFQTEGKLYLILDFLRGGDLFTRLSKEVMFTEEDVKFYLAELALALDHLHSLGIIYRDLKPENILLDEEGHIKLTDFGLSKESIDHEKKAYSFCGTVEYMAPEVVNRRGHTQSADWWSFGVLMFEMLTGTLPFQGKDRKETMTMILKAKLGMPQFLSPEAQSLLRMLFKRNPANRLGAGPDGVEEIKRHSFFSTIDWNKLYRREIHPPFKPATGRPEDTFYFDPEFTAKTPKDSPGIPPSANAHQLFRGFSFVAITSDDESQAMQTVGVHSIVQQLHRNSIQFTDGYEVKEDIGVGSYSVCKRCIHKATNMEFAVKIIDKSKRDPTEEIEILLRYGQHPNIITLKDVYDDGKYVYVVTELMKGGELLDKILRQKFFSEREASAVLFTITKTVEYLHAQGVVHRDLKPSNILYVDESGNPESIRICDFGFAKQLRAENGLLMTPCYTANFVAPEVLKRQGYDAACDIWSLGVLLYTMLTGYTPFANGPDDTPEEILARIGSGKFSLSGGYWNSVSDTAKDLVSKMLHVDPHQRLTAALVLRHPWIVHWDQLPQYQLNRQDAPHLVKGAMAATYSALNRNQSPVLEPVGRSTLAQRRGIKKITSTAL

`Cc1ccc(N2C(=O)[C@@H](C)N(C3CCCCC3)c3nc(Nc4ccc5[nH]ncc5c4)ncc32)cc1C#N` [Example 53, 5-[(7R)-8-cyclohexyl-2-(1H-indazol-5-ylamino)-7-methyl-6-oxo-7,8-dihydropteridin-5(6H)-yl]-2-methylbenzonitrile] and `CC(C)CCN1c2nc(Nc3ccc4[nH]ncc4c3)ncc2N(c2ccccc2)C(=O)[C@@H]1C` [Example 17, (7S)-2-(1H-indazol-5-ylamino)-7-methyl-8-(3-methylbutyl)-5-phenyl-7,8-dihydropteridin-6(5H)-one] cannot be ordered by IC50: ≤ 100 nM for the first, ≤ 100 nM for the second.

First: C[C@@H]1C(=O)N(c2cccc(C#N)c2)c2cnc(Nc3ccc4c(c3)CS(=O)(=O)N4)nc2N1C1CCCCC1 [compound 174, 3-[(7R)-8-cyclohexyl-2-[(2,2-dioxido-1,3-dihydro-2,1-benzothiazol-5-yl)amino]-7-methyl-6-oxo-7,8-dihydropteridin-5(6H)-yl]benzonitrile]
Second: CC(C)CCn1c(=O)c(=O)n(-c2ccccc2)c2cnc(Nc3ccc4c(c3)CC(=O)N4)nc21 [Example 306, 8-(3-methylbutyl)-2-[(2-oxo-2,3-dihydro-1H-indol-5-yl)amino]-5-phenyl-5,8-dihydropteridine-6,7-dione]
The IC50 of the first is lower: ≤ 100 nM for the first, > 1000 nM for the second. The first is the more potent here.

`C[C@@H]1C(=O)N(c2cccc(C#N)c2)c2cnc(Nc3cc(F)c4[nH]ncc4c3)nc2N1[C@H]1CC[C@@H](C)CC1` [compound 236, 3-[(7R)-2-[(7-fluoro-1H-indazol-5-yl)amino]-7-methyl-8-(cis-4-methylcyclohexyl)-6-oxo-7,8-dihydropteridin-5(6H)-yl]benzonitrile] and `C[C@@H]1C(=O)N(c2cccc(C#N)c2)c2cnc(Nc3cc(Cl)c4[nH]ncc4c3)nc2N1C1CCCCC1` [compound 97, 3-[(7R)-2-[(7-chloro-1H-indazol-5-yl)amino]-8-cyclohexyl-7-methyl-6-oxo-7,8-dihydropteridin-5(6H)-yl]benzonitrile] cannot be ordered by IC50: ≤ 100 nM for the first, ≤ 100 nM for the second.

`C[C@@H]1C(=O)N(c2cc(F)cc(C#N)c2)c2cnc(Nc3ccc4[nH]ncc4c3)nc2N1C1CCCCC1` [compound 112, 3-[(7R)-8-cyclohexyl-2-(1H-indazol-5-ylamino)-7-methyl-6-oxo-7,8-dihydropteridin-5(6H)-yl]-5-fluorobenzonitrile] and `CC[C@@H]1C(=O)N(c2cccc(F)c2)c2cnc(Nc3cc(F)c4[nH]ncc4c3)nc2N1C1CCCCC1` [compound 290, (7R)-8-cyclohexyl-7-ethyl-2-[(7-fluoro-1H-indazol-5-yl)amino]-5-(3-fluorophenyl)-7,8-dihydropteridin-6(5H)-one] cannot be ordered by IC50: ≤ 100 nM for the first, ≤ 100 nM for the second.

`C[C@@H]1C(=O)N(c2cc(F)cc(F)c2)c2cnc(Nc3ccc4[nH]ncc4c3)nc2N1C1CCCCC1` [compound 95, (7R)-8-cyclohexyl-5-(3,5-difluorophenyl)-2-(1H-indazol-5-ylamino)-7-methyl-7,8-dihydropteridin-6(5H)-one] and “(7R)-8-cyclohexyl-2-(1H-indazol-5-ylamino)-7-methyl-5-[4-(morpholin-4-yl)phenyl]-7,8-dihydropteridin-6(5H)-one [compound 126]” cannot be ordered by IC50: ≤ 100 nM for the first, ≤ 100 nM for the second.

`C[C@@H]1C(=O)N(c2cnn(C)c2)c2cnc(Nc3ccc4[nH]ncc4c3)nc2N1C1CCCCC1` [Example 58, (7R)-8-cyclohexyl-2-(1H-indazol-5-ylamino)-7-methyl-5-(1-methyl-1H-pyrazol-4-yl)-7,8-dihydropteridin-6(5H)-one] and `CSc1ccc(N2C(=O)[C@@H](C)N(C3CCCCC3)c3nc(Nc4ccc5[nH]ncc5c4)ncc32)cn1` [compound 98, (7R)-8-cyclohexyl-2-(1H-indazol-5-ylamino)-7-methyl-5-[6-(methylsulfanyl)pyridin-3-yl]-7,8-dihydropteridin-6(5H)-one] cannot be ordered by IC50: ≤ 100 nM for the first, ≤ 100 nM for the second.

Going from `C[C@@H]1C(=O)N(c2ccccc2)c2cnc(Nc3ccc4c(c3)CC(=O)N4)nc2N1C1CCCC1` [Example 68, (7R)-8-cyclopentyl-7-methyl-2-[(2-oxo-2,3-dihydro-1H-indol-5-yl)amino]-5-phenyl-7,8-dihydropteridin-6(5H)-one] to `C[C@@H]1C(=O)N(c2cccc(C#N)c2)c2cnc(Nc3ccc4[nH]ncc4c3)nc2N1[C@H]1CC[C@@H](O)CC1` [compound 309, 3-[(7R)-8-(cis-4-hydroxycyclohexyl)-2-(1H-indazol-5-ylamino)-7-methyl-6-oxo-7,8-dihydropteridin-5(6H)-yl]benzonitrile], the IC50 rises from ≤ 100 nM to > 1000 nM.

`CCOc1ccc(N2C(=O)[C@@H](C)N(C3CCC(F)(F)CC3)c3nc(Nc4cc(F)c5[nH]c(=O)oc5c4)ncc32)cc1C#N` [compound 280, 5-[(7R)-8-(4,4-difluorocyclohexyl)-2-[(4-fluoro-2-oxo-2,3-dihydro-1,3-benzoxazol-6-yl)amino]-7-methyl-6-oxo-7,8-dihydropteridin-5(6H)-yl]-2-ethoxybenzonitrile] and `C[C@@H]1C(=O)N(c2cccc(S(C)(=O)=O)c2)c2cnc(Nc3ccc4[nH]ncc4c3)nc2N1C1CCCCC1` [Example 43, (7R)-8-cyclohexyl-2-(1H-indazol-5-ylamino)-7-methyl-5-[3-(methylsulfonyl)phenyl]-7,8-dihydropteridin-6(5H)-one] cannot be ordered by IC50: ≤ 100 nM for the first, ≤ 100 nM for the second.

`CC(C)N1c2nc(Nc3ccc4c(c3)CC(=O)N4)ncc2N(c2ccccc2)C(=O)C1C` (stereo not drawn) [Example 94, 7-methyl-2-[(2-oxo-2,3-dihydro-1H-indol-5-yl)amino]-5-phenyl-8-(propan-2-yl)-7,8-dihydropteridin-6(5H)-one] and `CCOc1ccc(N2C(=O)[C@@H](C)N(C3CCOCC3)c3nc(Nc4cc(F)c5[nH]ncc5c4)ncc32)cc1C#N` [compound 195, 2-Ethoxy-5-[(7R)-2-[(7-fluoro-1H-indazol-5-yl)amino]-7-methyl-6-oxo-8-(tetrahydro-2H-pyran-4-yl)-7,8-dihydropteridin-5(6H)-yl]benzonitrile] cannot be ordered by IC50: 100 to 1000 nM for the first, ≤ 100 nM for the second.

`COCc1cccc(N2C(=O)[C@@H](C)N(C3CCCCC3)c3nc(Nc4ccc5[nH]ncc5c4)ncc32)c1` [compound 110, (7R)-8-cyclohexyl-2-(1H-indazol-5-ylamino)-5-[3-(methoxymethyl)phenyl]-7-methyl-7,8-dihydropteridin-6(5H)-one] and `C[C@@H]1C(=O)N(c2ccc(Cl)cc2)c2cnc(Nc3ccc4[nH]ncc4c3)nc2N1C1CCCCC1` [Example 21, (7R)-5-(4-chlorophenyl)-8-cyclohexyl-2-(1H-indazol-5-ylamino)-7-methyl-7,8-dihydropteridin-6(5H)-one] cannot be ordered by IC50: ≤ 100 nM for the first, ≤ 100 nM for the second.

`CC(C)CCN1c2nc(Nc3cc(F)c(O)c(F)c3)ncc2N(c2ccccc2)C(=O)C1C` (stereo not drawn) [Example 2, 2-[(3,5-difluoro-4-hydroxyphenyl)amino]-7-methyl-8-(3-methylbutyl)-5-phenyl-7,8-dihydropteridin-6(5H)-one] and `C[C@@H]1C(=O)N(c2cccc(C#N)c2)c2cnc(Nc3ccc4c(c3)CC(=O)N4)nc2N1C1CCCCC1` [Example 51, 3-[(7R)-8-cyclohexyl-7-methyl-6-oxo-2-[(2-oxo-2,3-dihydro-1H-indol-5-yl)amino]-7,8-dihydropteridin-5(6H)-yl]benzonitrile] cannot be ordered by IC50: ≤ 100 nM for the first, ≤ 100 nM for the second.

`CC(C)CCN1c2nc(N[C@H]3CC[C@H](O)CC3)ncc2N(c2ccccc2)C(=O)C1C` (relative stereo) [Example 11, 2-[(trans-4-hydroxycyclohexyl)amino]-7-methyl-8-(3-methylbutyl)-5-phenyl-7,8-dihydropteridin-6(5H)-one] and `COc1ccc(N2C(=O)[C@@H](C)N(C3CCCCC3)c3nc(NCc4ccncc4)ncc32)cc1OC` [compound 162] cannot be ordered by IC50: > 1000 nM for the first, > 1000 nM for the second.

`C[C@@H]1C(=O)N(c2cccc(C#N)c2)c2cnc(Nc3ccc4sncc4c3)nc2N1C1CCCCC1` [compound 109, 3-[(7R)-2-(1,2-benzothiazol-5-ylamino)-8-cyclohexyl-7-methyl-6-oxo-7,8-dihydropteridin-5(6H)-yl]benzonitrile] and `COc1ccc(N2C(=O)[C@@H](C)N(C3CCOCC3)c3nc(Nc4cc(F)c5[nH]ncc5c4)ncc32)cc1OC` [compound 188, (7R)-5-(3,4-dimethoxyphenyl)-2-[(7-fluoro-1H-indazol-5-yl)amino]-7-methyl-8-(tetrahydro-2H-pyran-4-yl)-7,8-dihydropteridin-6(5H)-one] cannot be ordered by IC50: 100 to 1000 nM for the first, ≤ 100 nM for the second.

`CC(C)CCN1c2nc(Nc3cc(F)c4[nH]ncc4c3)ncc2N(c2cccnc2)C(=O)[C@H]1C` [Example 87, (7R)-2-[(7-fluoro-1H-indazol-5-yl)amino]-7-methyl-8-(3-methylbutyl)-5-(pyridin-3-yl)-7,8-dihydropteridin-6(5H)-one] and `C[C@@H]1C(=O)N(c2ccc(N(C)C)nc2)c2cnc(Nc3cc(F)c4[nH]ncc4c3)nc2N1C1CCCCC1` [compound 143, (7R)-8-cyclohexyl-5-[6-(dimethylamino)pyridin-3-yl]-2-[(7-fluoro-1H-indazol-5-yl)amino]-7-methyl-7,8-dihydropteridin-6(5H)-one] cannot be ordered by IC50: ≤ 100 nM for the first, ≤ 100 nM for the second.

`C[C@@H]1C(=O)N(c2cccc(C#N)c2)c2cnc(Nc3ccc4[nH]ncc4c3)nc2N1CC1CC(F)(F)C1` [Example 83, 3-[(7R)-8-[(3,3-difluorocyclobutyl)methyl]-2-(1H-indazol-5-ylamino)-7-methyl-6-oxo-7,8-dihydropteridin-5(6H)-yl]benzonitrile] and `CO[C@H]1CC[C@@H](N2c3nc(Nc4ccc5[nH]c(=O)oc5c4)ncc3N(c3cccc(C#N)c3)C(=O)[C@H]2C)CC1` [compound 228, 3-[(7R)-8-(cis-4-methoxycyclohexyl)-7-methyl-6-oxo-2-[(2-oxo-2,3-dihydro-1,3-benzoxazol-6-yl)amino]-7,8-dihydropteridin-5(6H)-yl]benzonitrile] cannot be ordered by IC50: ≤ 100 nM for the first, ≤ 100 nM for the second.
